Assay results from ChEMBL document CHEMBL1150631, “New chemical constituents of Euphorbia quinquecostata and absolute configuration assignment by a convenient Mosher ester procedure carried out in NMR tubes” (J Nat Prod, 2002).
Values after ≈ are worked out from the molar mass of the structure shown.

Assay: Inhibition of 12-O-tetradecanoylphorbol 13-acetate-induced transformation of mouse JB6 cells after 14 days by soft agar transformation assay
Type: functional, cell-based

IC50: 2.3 µg/mL (≈ 12 µM)
Structure (SMILES): COc1ccc(/C=C/C=O)cc1OC [3,4-DIMETHOXY CINNAMALDEHYDE]
